# Experimental data taken from patent US20050158277A1 (priority 2001, published 2005).
# System: S. typhimurium
# Format: cell-based
# Details: up to 50 mM, 30 min exposure
# Experimental: FIGS. 17 (a-c) Curve of toxicity of benzyl alcohol. Effect of 30 min exposure to increasing concentration (5 to 80 mM) benzyl alcohol (BA) on the growth of S. typhimurium.
structure (smiles),measurement,value
"OCc1ccccc1 [BA, benzyl alcohol]",toxic effect on the growth of Salmonella,no toxic effect
